Measurements published in PubChem BioAssay AID330 (DTP/NCI, 2004).
Several values for one entry are separate records, joined by “and”; a condition that tells them apart may be missing. Identical values can stand only once. Toxic doses and inconclusive results are not listed.

Tested on: P388 leukemia ip, CD2F1 mice, survival T/C
Assay: NCI In Vivo Anticancer Drug Screen. Data for tumor model P388 Leukemia (intraperitoneal) in CD2F1 (CDF1) mice
Settings: endpoint: median survival time, higher = longer survival
Procedure, shortened: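 Mice carrying the transplanted tumor received test compound or vehicle. Survival was recorded in each group, and the value is the treated-group measurement divided by that of the vehicle-treated control group.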

[1] = dose: 50.0 mg/kg/injection, schedule: Q01DX005 (ip), vehicle: saline with Tween-80
[2] = dose: 100.0 mg/kg/injection, schedule: Q01DX005 (ip), vehicle: saline with Tween-80
[3] = dose: 50.0 mg/kg/injection, schedule: Q01DX005 (ip), vehicle: Klucel (hydroxypropylcellulose) (HPC)
[4] = dose: 100.0 mg/kg/injection, schedule: Q01DX005 (ip), vehicle: Klucel (hydroxypropylcellulose) (HPC)
[5] = dose: 50.0 mg/kg/injection, schedule: Q01DX009 (ip), vehicle: saline with Tween-80
[6] = dose: 100.0 mg/kg/injection, schedule: Q01DX009 (ip), vehicle: saline with Tween-80
[7] = dose: 200.0 mg/kg/injection, schedule: Q01DX009 (ip), vehicle: saline with Tween-80
[8] = dose: 60.0 mg/kg/injection, schedule: Q01DX005 (ip), vehicle: Klucel (hydroxypropylcellulose) (HPC)
[9] = dose: 120.0 mg/kg/injection, schedule: Q01DX005 (ip), vehicle: Klucel (hydroxypropylcellulose) (HPC)
[10] = dose: 240.0 mg/kg/injection, schedule: Q01DX005 (ip), vehicle: Klucel (hydroxypropylcellulose) (HPC)
[11] = dose: 100.0 mg/kg/injection, schedule: Q04DX003 (ip), vehicle: saline
[12] = dose: 200.0 mg/kg/injection, schedule: Q04DX003 (ip), vehicle: saline
[13] = dose: 400.0 mg/kg/injection, schedule: Q04DX003 (ip), vehicle: saline
[14] = dose: 50.0 mg/kg/injection, schedule: Q01DX009 (ip), vehicle: Klucel (hydroxypropylcellulose) (HPC)
[15] = dose: 100.0 mg/kg/injection, schedule: Q01DX009 (ip), vehicle: Klucel (hydroxypropylcellulose) (HPC)
[16] = dose: 200.0 mg/kg/injection, schedule: Q01DX009 (ip), vehicle: Klucel (hydroxypropylcellulose) (HPC)
[17] = dose: 60.0 mg/kg/injection, schedule: Q01DX005 (ip), vehicle: saline with Tween-80
[18] = dose: 120.0 mg/kg/injection, schedule: Q01DX005 (ip), vehicle: saline with Tween-80
[19] = dose: 240.0 mg/kg/injection, schedule: Q01DX005 (ip), vehicle: saline with Tween-80
[20] = dose: 200.0 mg/kg/injection, schedule: Q01DX005 (ip), vehicle: saline with Tween-80
[21] = dose: 25.0 mg/kg/injection, schedule: Q01DX009 (ip), vehicle: saline with Tween-80

Compound: COC(=O)C1CC2CC(O)CN(CCc3c1[nH]c1ccccc31)C2 (stereo unspecified)
- T/C (dose: 3.63 mg/kg/injection, schedule: Q01DX005 (ip), vehicle: Klucel (hydroxypropylcellulose) (HPC)): 104 % of control
- T/C (dose: 7.25 mg/kg/injection, schedule: Q01DX005 (ip), vehicle: Klucel (hydroxypropylcellulose) (HPC)): 100 % of control
- T/C (dose: 14.5 mg/kg/injection, schedule: Q01DX005 (ip), vehicle: Klucel (hydroxypropylcellulose) (HPC)): 104 % of control
- T/C (dose: 29.0 mg/kg/injection, schedule: Q01DX005 (ip), vehicle: Klucel (hydroxypropylcellulose) (HPC)): 89 % of control

Compound: CCN=C(c1ccc(NC(=O)c2ccc(C(=O)Nc3ccc(C(=NCC)N(CC)CC)cc3)cc2)cc1)N(CC)CC
- T/C (dose: 0.39 mg/kg/injection, schedule: Q01DX005 (ip), vehicle: Klucel (hydroxypropylcellulose) (HPC)): 102 % of control
- T/C (dose: 0.78 mg/kg/injection, schedule: Q01DX005 (ip), vehicle: Klucel (hydroxypropylcellulose) (HPC)): 100 % of control
- T/C (dose: 1.56 mg/kg/injection, schedule: Q01DX005 (ip), vehicle: Klucel (hydroxypropylcellulose) (HPC)): 101 % of control

Compound: CCC(C)C(NC(=O)C(Cc1cnc[nH]1)N(C(=O)OCc1ccccc1)C(=O)OCc1ccccc1)C(=O)OCc1ccccc1 (stereo unspecified)
- T/C [1]: 100 % of control
- T/C [2]: 93 % of control

Compound: c1ccc2c(c1)[nH]c1c2nc2ccccn21
- T/C (dose: 25.0 mg/kg/injection, schedule: Q01DX005 (ip), vehicle: Klucel (hydroxypropylcellulose) (HPC)): 105 % of control and 107 % of control
- T/C [3]: 105 % of control and 108 % of control and 113 % of control
- T/C [4]: 124 % of control

Compound: O=C1NN=C(c2ccc(Br)cc2)CS1
- T/C [5]: 92 % of control and 97 % of control
- T/C [6]: 101 % of control and 87 % of control
- T/C [7]: 113 % of control and 120 % of control

Compound: CSc1nc(=O)n(CCC#N)nc1SC
- T/C [8]: 98 % of control
- T/C [9]: 92 % of control
- T/C [10]: 92 % of control

Compound: c1cc2cc(-c3cc4ccc(C5=NCCN5)cc4[nH]3)[nH]c2cc1C1=NCCN1
- T/C [11]: 210 % of control
- T/C [12]: 189 % of control
- T/C [13]: 159 % of control

Compound: CC(CCc1ccc2c(c1)OCO2)NCC(O)c1ccc(O)c(C(N)=O)c1 (stereo unspecified)
- T/C [14]: 93 % of control
- T/C [15]: 94 % of control
- T/C [16]: 100 % of control

Compound: Cc1c(-c2ccccc2)nnn1-c1ccc(F)cc1F
- T/C [17]: 101 % of control
- T/C [18]: 99 % of control
- T/C [19]: 92 % of control

Compound: COc1ccc(/C=C\C(=O)c2ccc(C(=O)/C=C/c3ccc(OC)cc3OC)cc2)c(OC)c1
- T/C (dose: 12.5 mg/kg/injection, schedule: Q04DX003 (ip), vehicle: saline with Tween-80): 100 % of control
- T/C (dose: 25.0 mg/kg/injection, schedule: Q04DX003 (ip), vehicle: saline with Tween-80): 102 % of control
- T/C (dose: 50.0 mg/kg/injection, schedule: Q04DX003 (ip), vehicle: saline with Tween-80): 92 % of control

Compound: Cc1cc2nc(C/C(=N/O)c3ccncc3)c(C/C(=N/O)c3ccncc3)nc2cc1C
- T/C [17]: 93 % of control
- T/C [18]: 91 % of control

Compound: Cc1ccc(S(=O)(=O)NC(CCC(N)=O)C(=O)O)cc1 (stereo unspecified)
- T/C [1]: 100 % of control
- T/C [2]: 103 % of control
- T/C [20]: 91 % of control

Compound: CC(C)(O)c1ccccc1Br
- T/C [14]: 98 % of control
- T/C [15]: 99 % of control
- T/C [16]: 102 % of control

Compound: CCOC(=O)C1Cc2c([nH]c(=O)[nH]c2=O)OC1c1ccc([N+](=O)[O-])cc1 (stereo unspecified)
- T/C [3]: 97 % of control
- T/C [4]: 89 % of control
- T/C (dose: 200.0 mg/kg/injection, schedule: Q01DX005 (ip), vehicle: Klucel (hydroxypropylcellulose) (HPC)): 94 % of control

Compound: c1ccc([Si]2(c3ccccc3)O[Si](c3ccccc3)(c3ccccc3)O[Si](c3ccccc3)(c3ccccc3)O[Si](c3ccccc3)(c3ccccc3)O2)cc1
- T/C [21]: 95 % of control and 97 % of control
- T/C [5]: 100 % of control and 92 % of control and 93 % of control
- T/C [6]: 120 % of control and 94 % of control and 95 % of control
- T/C [7]: 90 % of control (2×) and 93 % of control

Compound: O=NNc1nc2ccccc2s1
- T/C (dose: 1.56 mg/kg/injection, schedule: Q01DX009 (ip), vehicle: water): 97 % of control
- T/C (dose: 3.12 mg/kg/injection, schedule: Q01DX009 (ip), vehicle: water): 100 % of control and 105 % of control
- T/C (dose: 6.25 mg/kg/injection, schedule: Q01DX009 (ip), vehicle: water): 106 % of control and 109 % of control
- T/C (dose: 12.5 mg/kg/injection, schedule: Q01DX009 (ip), vehicle: water): 100 % of control and 92 % of control
- T/C (dose: 25.0 mg/kg/injection, schedule: Q01DX009 (ip), vehicle: water): 102 % of control and 106 % of control
- T/C (dose: 50.0 mg/kg/injection, schedule: Q01DX009 (ip), vehicle: water): 92 % of control

Compound: N#CC1=C(N)OC(c2ccccc2)=C(C#N)C1c1ccccc1 (stereo unspecified)
- T/C [17]: 98 % of control
- T/C [18]: 96 % of control
- T/C [19]: 91 % of control

Compound: CCOC(=O)N(O)c1ccc(C)cc1
- T/C (dose: 100.0 mg/kg/injection, schedule: Q04DX002 (ip), vehicle: saline with Tween-80): 109 % of control
- T/C (dose: 200.0 mg/kg/injection, schedule: Q04DX002 (ip), vehicle: saline with Tween-80): 112 % of control
- T/C (dose: 400.0 mg/kg/injection, schedule: Q04DX002 (ip), vehicle: saline with Tween-80): 124 % of control

Compound: COc1ccc(-c2cc(-c3ccc(OC)cc3OC)[n+](C)c(-c3ccc(OC)cc3OC)c2)cc1
- T/C (dose: 0.78 mg/kg/injection, schedule: Q01DX009 (ip), vehicle: saline with Tween-80): 124 % of control
- T/C (dose: 1.56 mg/kg/injection, schedule: Q01DX009 (ip), vehicle: saline with Tween-80): 124 % of control

Compound: Cn1/c2cc/c1=C(\c1ccccc1)c1ccc([n-]1)/C(c1ccccc1)=c1/cc/c([nH]1)=C(\c1ccccc1)c1ccc([n-]1)/C=2c1ccccc1.O.O=S(=O)(O)C(F)(F)F.[Cu+2]
- T/C (dose: 12.5 mg/kg/injection, schedule: Q01DX009 (ip), vehicle: saline with Tween-80): 102 % of control
- T/C [21]: 91 % of control
- T/C (dose: 50.0 mg/kg/injection, schedule: Q01DX009 (ip), vehicle: other): 88 % of control
- T/C [5]: 91 % of control

Compound: S=c1[nH]nc(NC2CCCCC2)s1
- T/C [5]: 90 % of control
- T/C [6]: 90 % of control
- T/C (dose: 100.0 mg/kg/injection, schedule: Q04DX003 (ip), vehicle: saline with Tween-80): 91 % of control
- T/C [7]: 90 % of control
- T/C (dose: 200.0 mg/kg/injection, schedule: Q04DX003 (ip), vehicle: saline with Tween-80): 91 % of control

Compound: CNC(=S)C#N
- T/C (dose: 25.0 mg/kg/injection, schedule: Q01DX005 (ip), vehicle: saline + Tween-80 + alcohol): 122 % of control
- T/C (dose: 50.0 mg/kg/injection, schedule: Q01DX005 (ip), vehicle: saline + Tween-80 + alcohol): 111 % of control and 119 % of control
- T/C (dose: 100.0 mg/kg/injection, schedule: Q01DX005 (ip), vehicle: saline + Tween-80 + alcohol): 119 % of control

Compound: CCOC(=O)/C(Cl)=C1\SN(C(=O)OCC)N=C1C
- T/C [1]: 99 % of control
- T/C [2]: 95 % of control
- T/C [20]: 96 % of control

Compound: Cc1cc(C)n(-c2ccnc(-n3nc(C)cc3C)n2)n1
- T/C [11]: 104 % of control
- T/C [12]: 114 % of control
- T/C [13]: 101 % of control

Compound: COC1(OC)C(c2ccccc2)C(C#N)(C#N)C1(OC)OC (stereo unspecified)
- T/C [8]: 102 % of control
- T/C [9]: 100 % of control
- T/C [10]: 99 % of control

Compound: CN1CCN(c2cc3nc[nH]c(=O)c3cc2[N+](=O)[O-])CC1
- T/C (dose: 50.0 mg/kg/injection, schedule: Q04DX003 (ip), vehicle: Klucel (hydroxypropylcellulose) (HPC)): 99 % of control
- T/C (dose: 100.0 mg/kg/injection, schedule: Q04DX003 (ip), vehicle: Klucel (hydroxypropylcellulose) (HPC)): 104 % of control

Compound: [O-]c1n[n+](-c2ccccc2)ns1
- T/C (dose: 3.13 mg/kg/injection, schedule: Q01DX009 (ip), vehicle: distilled water + Tween-80): 99 % of control and 106 % of control
- T/C (dose: 6.25 mg/kg/injection, schedule: Q01DX009 (ip), vehicle: distilled water + Tween-80): 99 % of control and 101 % of control and 114 % of control
- T/C (dose: 12.5 mg/kg/injection, schedule: Q01DX009 (ip), vehicle: distilled water + Tween-80): 100 % of control and 105 % of control and 124 % of control
- T/C (dose: 25.0 mg/kg/injection, schedule: Q01DX009 (ip), vehicle: distilled water + Tween-80): 99 % of control and 115 % of control and 92 % of control
